Results published in patent US9701618B2, “Cannabidiol quinone derivatives” (VIVACELL BIOTECHNOLOGY ESPAÑA S.L., priority 2014, dated 2017).
Entries after “also recorded” stand apart in the source; their conditions may differ.

Experiments:
PPARg [1] = target: T1, PPARg (Homo sapiens, UniProt P37231); settings: cited from earlier work
T1 sequence (P37231 1-505): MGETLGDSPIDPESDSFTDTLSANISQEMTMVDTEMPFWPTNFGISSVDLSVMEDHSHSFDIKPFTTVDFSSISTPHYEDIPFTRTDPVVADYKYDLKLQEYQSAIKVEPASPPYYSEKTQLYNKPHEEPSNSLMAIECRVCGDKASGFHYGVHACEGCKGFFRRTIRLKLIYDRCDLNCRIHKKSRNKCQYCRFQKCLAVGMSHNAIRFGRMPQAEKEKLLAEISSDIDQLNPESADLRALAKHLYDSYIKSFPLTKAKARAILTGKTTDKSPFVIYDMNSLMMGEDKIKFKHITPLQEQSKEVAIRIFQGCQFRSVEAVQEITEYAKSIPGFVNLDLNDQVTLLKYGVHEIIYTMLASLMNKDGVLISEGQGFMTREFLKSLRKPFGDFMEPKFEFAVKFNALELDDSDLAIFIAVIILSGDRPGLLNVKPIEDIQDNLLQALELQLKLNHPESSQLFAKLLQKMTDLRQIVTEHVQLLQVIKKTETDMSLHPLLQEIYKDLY

PPARg [2] = assay: PPARg transactivation assay (GAL4-PPARg/GAL4-luc) in HEK-293 and NIH-3T3 cells; assay type: cell-based, human; settings: for PPARg transactivation (luciferase activity): treated 6 hours, compared with untreated cells
Description: The concentration of the tested compound (μM) is shown at the x-axis and the PPARg activation fold is shown at the y-axis. […]. Fold activation level was calculated, taking the control sample (−), without the presence of any PPARg agonist or activating agent, as reference. Data are expressed as mean±S.D. of at least three independent experiments.
To investigate the biological activities of the novel compounds we performed PPARg transactivation assays in HEK-293 cells and in NIH-3T3 fibroblasts cells.
HEK293T cells and human primary fibroblasts cells were maintained at 37° C. in a humidified atmosphere containing 5% CO2 in DMEM supplemented with 10% fetal calf serum (FBS), and 1% (v/v) penicillin/streptomycin. Rosiglitazone was purchased from Cayman Chemical Company (Ann Arbor, Mich., USA). All other reagents were from Sigma Co (St Louis, Mo., USA). HEK293T cells (2×10^3/well) (FIGS. 1A, 1B and 1C) or NIH-3T3 cells (5×10^3/well) (FIG. 2) were seeded in BD Falcon™ White with Clear Bottom 96-well Microtest™ Optilux™ Plate for 24 hours. Afterwards, cells were transiently co-transfected with the expression vector GAL4-PPARγ and the luciferase reporter vector GAL4-luc using Roti©-Fect (Carl Roth, Karlsruhe, Germany) following the manufacturer's instructions. Twenty-four h post-transfection, cells were pretreated with increasing doses of the compounds for 6 hours. Then, the cells were lysed in 25 mM Tris-phosphate pH 7.8, 8 mM MgCl2, 1 mM DTT, 1% Triton X-100, and 7% glycerol. Luciferase activity was measured in the cell lysate using a TriStar LB 941 multimode microplate reader (Berthold) and following the instructions of the Luciferase Assay Kit (Promega, Madison, Wis., USA). Protein concentration was measured by the Bradford assay (Bio-Rad, Richmond, Calif., USA). The background obtained with the lysis buffer was subtracted in each experimental value and the specific transactivation expressed as a fold induction over untreated cells. All the experiments were repeated at least three times. The plasmids used were Gal4-hPPARgamma (plasmid name: pCMV-BD-hPPARg, Sinal Laboratory, Dept. of Pharmacology, Dalhousie University) and Gal4 luc reporter plasmid that includes five Gal4 DNA binding sites fused to the luciferase gene. […]. Data are given as means with deviation standard error bars of three replicates. […].

Jurkat cells [3] = assay: Mitochondrial membrane potential (MitoTracker Red CMXR, flow cytometry); assay type: cell-based; settings: 2 hours, increasing concentrations
PPARg [4] = assay: Inhibition of Rosiglitazone-induced PPARg activation in HEK-293 cells; assay type: cell-based, human; settings: pretreated 30 min, then RSZ 1 μM for 6 hours
Description: (A) HEK-293 cells were co-transfected with GAL4-PPARg and GAL4-luc. […] Protein lysates were prepared and analyzed for luciferase activity. The concentration of the tested compound (μM) is shown at the x-axis and the PPARg activation fold is shown at the y-axis.
(A) HEK293T cells were maintained at 37° C. in a humidified atmosphere containing 5% CO2 in DMEM supplemented with 10% fetal calf serum (FBS), and 1% (v/v) penicillin/streptomycin. Rosiglitazone was purchased from Cayman Chemical Company (Ann Arbor, Mich., USA). HEK293T cells (2×10^3/well) (FIG. 3A) were seeded in BD Falcon™ White with Clear Bottom 96-well Microtest™ Optilux™ Plate for 24 hours. Afterwards, cells were transiently co-transfected with the expression vector GAL4-PPARγ and the luciferase reporter vector GAL4-luc using Roti©-Fect (Carl Roth, Karlsruhe, Germany) following the manufacturer's instructions. Twenty-four h post-transfection, cells were pretreated with increasing doses of the compounds for 30 min and then stimulated with RSZ (1 μM) for 6 hours.

NIH-3T3 cells = assay: TGFb-induced collagen production, Sirius Red-Fast Green method; assay type: cell-based; settings: 1 hour pre-incubation, TGFb 50 ng/ml 24 hours
Description: The production of collagen was carried out using the Sirius Red-Fast Green method, designed to quantify the amount of collagen and non-collagen proteins in cell pellets. The collagen production was determined at 540 nm and 605 nm in a Genesis 10 UV scanning spectrofluorometer (Thermo Fisher Scientific). To calculate the amounts of collagen, first, we corrected the OD 540 value by subtracting the contribution by Fast Green, which interfere in the absorbance at 540 nm. Fast Green contributes 29.1% of the OD 540 value. The Color equivalence is 37.8 for collagen and 2.04 for non-collagen proteins at OD 540 and […], respectively. Collagen(pg/100 μl cell pellet)={[OD 540−(OD 605×0.291)]/37.8×1000}×10^6.
The experiments were repeated three times, and the results were expressed as a fold induction over untreated cells.
The production of collagen was carried out using the Sirius Red-Fast Green method, designed to quantify the amount of collagen and non-collagen proteins in cell pellets. NIH-3T3 cells were seeded at a density of 5×10^4/well in 24 well plates and they were incubated overnight at 37° C. to allow cell attachment. Next, cells were pre-incubated 1 hour with the indicated concentrations of compounds III, V, VIII and X and TGFb (50 ng/ml) during 24 hours. After the treatment, the cell pellets were extracted overnight at 4° C. with 100 μl of 0.5M acetic acid. Then, 1 ml of the dye solution (0.1% Sirius Red and 0.1% Fast Green dissolved in saturated picric acid) was added to the cell pellets and mixed gently at room temperature for 30 minutes. Next, samples were centrifuged at 10,000 g for 5 minutes to pellet the collagen. The supernatants were carefully removed without disturbing the pellet and 1 ml of 0.1 M hydrochloric acid was added to each tube to remove unbound dye. Samples were centrifuged at 10,000 g for 5 minutes and 1 ml of 0.5 M sodium hydroxide was added to each tube and vortex vigorously to release the bound dye. Samples were centrifuged at 2500 g for 5 minutes to re-pellet any cell debris.
The collagen production was determined and the results were expressed as a fold induction over untreated cells.

human COL1A2 promoter = assay: TGFb-induced collagen type I gene transcription (COL1A2-Luc) in NIH-3T3 fibroblasts; assay type: cell-based; settings: 30 min pre-incubation, TGFb 50 ng/ml 6 h
Description: To investigate the potential anti-fibrotic activity of CBD-derivatives NIH-3T3 fibroblast cells were transiently transfected with the plasmid COL1A2-Luc plasmid by using Roti©-Fect according to the manufacturer instructions. The COL1A2-luciferase construct contains sequences from −353 to +58 bp of the human COL1A2 promoter fused to the luciferase reporter gene (pGL2 basic, Promega, Madison, Wis.). […] Protein lysates were prepared and analyzed for luciferase activity. The concentration of the tested compound (μM) is shown at the x-axis and the percentage of COL1A2 activation is shown at the y-axis considering 100% activation the effect of TGFb in the absence of the compounds. Data are expressed as mean±SD of at least three independent experiments.
Cultured NIH-3T3 fibroblast cells were transiently transfected with the plasmid COL1A2-Luc plasmid that contains sequences from −353 to +58 bp of the human COL1A2 promoter fused to the luciferase reporter gene. Twenty-four hour later the cells were incubated with compounds III, V, VIII and X (as examples) for 30 min and treated with TGFb (50 ng/ml) for 6 h. Protein lysates were prepared and analyzed for luciferase activity.

Jurkat cells [5] = assay: ROS generation (H2DCF-DA, flow cytometry); settings: 6 hours, increasing concentrations

Row | Compound | PPARg transactivation (luciferase activity) (PPARg [2]) | mitochondrial membrane potential (Jurkat cells [3]) | RSZ-induced PPARg transactivation (PPARg [4]) | TGFb-induced collagen production (NIH-3T3 cells) | TGFb-induced collagen type I gene transcription (human COL1A2 promoter) | intracellular ROS levels (Jurkat cells [5]) | further results
1 | 4 methyl-CBD-quinone | – | – | – | – | – | – | affinity for PPARg compared to parent molecule CBD (PPARg [1]): higher affinity
2 | 4-formyl-methoxy-CBD-quinone | – | – | – | – | – | – | affinity for PPARg compared to parent molecule CBD (PPARg [1]): higher affinity
3 | C=C(C)[C@@H]1CCC(C)=C[C@H]1C1=C(O)C(=O)C(CCCCC)=C(NCC)C1=O [Compound II, (1′R,6′R)-3-(Ethylamine)-6-hydroxy-3′-methyl-4-pentyl-6′-(prop-1-en-2-yl)-[1,1′-bi(cyclohexane)]-2′,3,6-triene-2,5-dione] | the most active compounds | – | – | – | – | – | –
4 | C=C(C)[C@@H]1CCC(C)=C[C@H]1C1=C(O)C(=O)C(CCCCC)=C(NCCCCC)C1=O [Compound III, (1′R,6′R)-3-(Pentylamine)-6-Hydroxy-3′-methyl-4-pentyl-6′-(prop-1-en-2-yl)-[1,1′-bi(cyclohexane)]-2′,3,6-triene-2,5-dione] | the most active compounds | did not induce a loss | decrease | clearly inhibited | clearly inhibited | not reactive; also recorded: unable to induce ROS accumulation significantly | –
5 | C=C(C)[C@@H]1CCC(C)=C[C@H]1C1=C(O)C(=O)C(CCCCC)=C(NCC(C)C)C1=O [Compound IV, (1′R,6′R)-3-(Isobutylamine)-6-Hydroxy-3′-methyl-4-pentyl-6′-(prop-1-en-2-yl)-[1,1′-bi(cyclohexane)]-2′,3,6-triene-2,5-dione] | the most active compounds | – | – | – | – | – | –
6 | C=C(C)[C@@H]1CCC(C)=C[C@H]1C1=C(O)C(=O)C(CCCCC)=C(NCCCC)C1=O [Compound V, (1′R,6′R)-3-(Butylamine)-6-hydroxy-3′-methyl-4-pentyl-6′-(prop-1-en-2-yl)-[1,1′-bi(cyclohexane)]-2′,3,6-triene-2,5-dione] | the most active compounds | did not induce a loss | decrease | clearly inhibited | clearly inhibited | not reactive; also recorded: unable to induce ROS accumulation significantly | –
7 | C=C(C)[C@@H]1CCC(C)=C[C@H]1C1=C(O)C(=O)C(CCCCC)=C(NC(C)C)C1=O [Compound VII, (1′R,6′R)-3-(Isopropylamine)-6-Hydroxy-3′-methyl-4-pentyl-6′-(prop-1-en-2-yl)-[1,1′-bi(cyclohexane)]-2′,3,6-triene-2,5-dione] | the most active compounds | did not induce a loss | – | – | – | not reactive | –
8 | C=C(C)[C@@H]1CCC(C)=C[C@H]1C1=C(O)C(=O)C(CCCCC)=C(NCc2ccccc2)C1=O [Compound VIII, (1′R,6′R)-3-(Benzylamine)-6-hydroxy-3′-methyl-4-pentyl-6′-(prop-1-en-2-yl)-[1,1′-bi(cyclohexane)]-2′,3,6-triene-2,5-dione] | the most active compounds | – | decrease | clearly inhibited | clearly inhibited | – | –
9 | C=C(C)[C@@H]1CCC(C)=C[C@H]1C1=C(O)C(=O)C(CCCCC)=C(NCCC(C)C)C1=O [Compound X, (1′R,6′R)-3-(Isopentylamine-6-Hydroxy)-3′-methyl-4-pentyl-6′-(prop-1-en-2-yl)-[1,1′-bi(cyclohexane)]-2′,3,6-triene-2,5-dione] | – | did not induce a loss | decrease | clearly inhibited | clearly inhibited | not reactive; also recorded: unable to induce ROS accumulation significantly | –
10 | C=C(C)[C@@H]1CCC(C)=C[C@H]1C1=C(O)C(=O)C(CCCCC)=C(C(=O)OC/C=C(\C)CCC=C(C)C)C1=O [Compound XIII, (E)-3,7-dimethylocta-2,6-dienyl-4-hydroxy-5-((1R,6R)-3-methyl-6-(prop-1-en-2-yl)cyclohex-2-enyl)-3,6-dioxo-2-pentylcyclohexa-1,4-dienecarboxylate] | – | – | decrease | – | – | – | –
11 | CN(CCOc1ccc(CC2SC(=O)NC2=O)cc1)c1ccccn1 (stereo not shown) [Rosiglitazone, reference compound] | – | – | – | – | – | – | increase of PPARg activity (fold induction) (PPARg [2]; 1 μM concentration): more than 100 times
12 | CBD-1,4-dihydroxyquinone | – | – | – | – | – | – | affinity for PPARg compared to parent molecule CBD (PPARg [1]): higher affinity
